The text below walks through data of publication PMC8202924, “Emodepside targets SLO-1 channels of Onchocerca ochengi and induces broad anthelmintic effects in a bovine model of onchocerciasis” (PLoS Pathogens, 2021).

Values joined by “and” are separate entries in the source; they are usually repeats but may differ in a detail not shown here. Equal entries are not always repeated. Where two headings read alike, the source gives them in different places.

For series [1] the following is noted: rat, over four weeks orally in diet; cited from earlier work. An excerpt: Blood glucose has been identified as a simple biomarker for emodepside exposure in humans.
Series [2] in a line: Plasma PK of emodepside in the main trial, LC-MS/MS. It counts as in vivo, zebu (Ngaoundéré Gudali) cattle (B. t. indicus). Particulars: for Model tmax in plasma: two-compartment model; for Tmax: bovine, iv, read-out: Time of observed Cmax in plasma (converted). Here is the method: Bovine samples (EDTA-plasma, skin snips and nodules) were stored at –80°C in Cameroon and shipped according to international transportation guidelines on dry ice to Bayer, Germany. Due to suspected contamination with other pathogens, samples required decontamination. Based on modified WHO guidelines for viral inactivation and reports of virus stability in fluids and solid media issued by the United States Army, decontamination of samples was performed. Samples were thawed slowly in a microbiological safety cabinet and the plasma samples were vortexed gently. Skin snips and nodules were homogenized in a Qiagen TissueLyser II (Qiagen NV, Hilden, the Netherlands) with stainless steel beads. Homogenates were weighed and mixed with 4.5 volumes of a 0.5% collagenase solution (collagenase from Clostridium histolyticum [>125 IU/mg] Merck KGaA, Darmstadt, Germany), then incubated at 37°C with orbital mixing at 140 rpm for 48 h.
Plasma samples, skin and nodule homogenates were precipitated in a 1:10 ratio with acetonitrile using a vortex mixer at 150 rpm for 10 min, then centrifuged for 5 min at 14,000 rpm. The supernatants were pipetted into gas-tight vials and incubated at 80°C for 21 min to achieve a core temperature of 80°C for 10 min, then cooled to 4°C in a water-ice bath. Finally, samples were filtered using a cellulose sterile filter (S&S Spartan 13/30) into standard HPLC vials for liquid chromatography–mass spectrometry analysis. For liquid chromatography on a C18 column, a water/methanol gradient (containing 10 mmol ammonium acetate and 0.1 mL/L formic acid) was used. Quantification of emodepside was performed by tandem mass spectrometry on an API 5500 instrument (AB Sciex, Darmstadt, Germany) using the transition of m/z = 1,120 ([M + H]^+) to its product ion m/z = 343. […]
For the PK mean model, the PK of emodepside was modelled using a closed-form, two-compartment IV model according to Eq 1. csdt=dose*c0*exp−ke*t*1+delta*exp+ke*f*t (1) with ke, f and delta being parameters describing the distribution and elimination phase, and c0 being a proportionality factor for the dose.
The multiple IV dose was modelled as an additive single-dose, two-compartment model according to Eq 2. cmdt=∑i=17t−i*tΔ>0?csdt−i*tΔ:0 (2) with i as index of doses (1 to 7), and tΔ the difference in time between consecutive doses (here 24 h).
Parameters describing distribution and elimination of emodepside were fitted to the observed data of all dose steps and animals together using the optim fit function of R and the ‘L-BFGS-B’ method […] box constraints. From the observed data, the maximal observed concentration and the corresponding timepoint were extracted. The terminal half-life was calculated from the last three datapoints. The corresponding mean values were derived from the compartmental model parameters.

Series [3] concerns Onchocerca ochengi adult female worms. Kind of series: Embryogram (uterine contents of female worms from nodules). Particulars: MRSM, 4 mg/kg every other day for 3 days; P = 0.005. In kind it is in vivo. As for the experimental part:
(§1) Tattooed nodules were removed under local anesthesia (lidocaine-epinephrine) on study days -1, 90, 180–190, 270–290, 360 and 550 in a randomized order as previously described. Nodules were trimmed of excess tissue and up to four nodules per animal were processed separately as follows: (1) stored frozen at –80°C for PK analysis (up to day 14 only); (2) injected in toto with 10% neutral-buffered formalin and stored at 4°C for histopathology (up to day 290 only); or (3) dissected immediately in phosphate-buffered saline to separate adult male and female worms. The anterior end of the female worm (which even in viable specimens is the only motile part of the parasite) was removed from the worm mass and incubated alongside intact male worms for 30 min at 37°C for visual motility assessment on a three-point scale. The remaining portion of the female worm mass was subjectively scored for fecundity on a four-point scale (0, uteri empty or worm structure degraded; 1, low; 2, intermediate; 3, normal) by examining the uterine contents microscopically in situ. This was followed by a fully quantitative embryogram to enumerate oocytes, embryonic stages and intrauterine Mf as described previously.
The same principle was applied to the analysis of the uterine contents. […] Over all doses and individual animals, an effect size (m) and corresponding statistics were calculated using R’s lm function.

Series [4] concerns Onchocerca ochengi adult male worms. Kind of series: Ex vivo visual motility assessment of adult male worms from nodules. It counts as in vivo. Particulars: MRSM, 4 mg/kg every other day for 3 days; day 550; n = 1. Here is the method: as §1
The second class of PD endpoint considered was worm motility, which was recorded as a three-class categorical variable and quantified here as a fraction of normal worm motility. […]

Series [5] has as its system Onchocerca ochengi adult female worms. Kind of series: Ex vivo visual motility assessment of adult female worms from nodules. The note with it: MRSM, 4 mg/kg every other day for 3 days. It counts as in vivo. As for the experimental part: as §1
The second class of PD endpoint considered was worm motility, which was recorded as a three-class categorical variable and quantified here as a fraction of normal worm motility. First, a linear model of decrease in motility per dose group was established with a study-wide mean motility at day –1: motilitydose_group,t=meanmotilityday−1−slopedose_group*t (5)

[6] abbreviates: EMO1L, 0.15 mg/kg IV single dose, individual animals in order B0696, B0698, B0700, B0722, B0730, B0731, B0762.

On to `CC(C)C[C@H]1C(=O)O[C@H](Cc2ccc(N3CCOCC3)cc2)C(=O)N(C)[C@@H](CC(C)C)C(=O)O[C@H](C)C(=O)N(C)[C@@H](CC(C)C)C(=O)O[C@H](Cc2ccc(N3CCOCC3)cc2)C(=O)N(C)[C@@H](CC(C)C)C(=O)O[C@H](C)C(=O)N1C` [emodepside], for which, in series [1], the no-observed-adverse-effect level is 4 to 5 mg/kg. For the same compound, the “Time of observed Cmax in plasma” value was 5 min in series [2] (EMO1H, 0.75 mg/kg IV single dose, animals in order B0054, B0405, B0439, B0726, B0728); 5 min (6×) and 30 min in series [2] (setting [6]). Besides, the tlast in plasma in series [2] (EMO1H, 0.75 mg/kg IV single dose, individual animals in order B0054, B0405, B0439, B0721, B0726, B0727, B0728) was 168 h (2×) and 504 h (4×) and 336 h; in series [2] (setting [6]), 168 h (3×) and 336 h (2×) and 504 h; in series [2] (EMO7H, 0.75 mg/kg IV daily for 7 days, individual animals in order B0404, B0434, B0694, B0695, B0734, B0750, B0765) it was 504 h; in series [2] (EMO7L, 0.15 mg/kg IV daily for 7 days, individual animals in order B0228, B0407, B0549, B0725, B0733, B0735, B0761), 336 h and 504 h (6×). For the same compound, the “Model tmax in plasma” value is 0.083 h in series [2] (EMO1H, 0.75 mg/kg IV single dose); 0.083 h in series [2] (EMO1L, 0.15 mg/kg IV single dose); 144 h in series [2] (EMO7H, 0.75 mg/kg IV daily for 7 days); 144 h in series [2] (EMO7L, 0.15 mg/kg IV daily for 7 days). Further, the Tmax is 1440 min in series [2] (Ngaoundéré Gudali zebu, plasma, 0.15 mg/kg, EMO7L, 0.15 mg/kg IV daily for 7 days, animals in order B0228, B0407, B0735, B0761); 5 min in series [2] (Ngaoundéré Gudali zebu, plasma, 0.15 mg/kg, EMO7L, 0.15 mg/kg IV daily for 7 days, animals in order B0549, B0725, B0733); 5 min in series [2] (Ngaoundéré Gudali, plasma, 0.75 mg/kg, EMO7H, 0.75 mg/kg IV daily for 7 days, animals in order B0434, B0695, B0734). In series [2] (plasma, derived from observed data and aggregated through the PK model, all dose groups), the Terminal half-life result is on record as “approximately 106 h”.
Regarding `NCCS[As](SCCN)c1ccc(Nc2nc(N)nc(N)n2)cc1` [melarsomine], in series [3], the “AUC for all embryonic stages” value is given as “significantly reduced”. Also, in series [4], the “Fraction of normal adult male worm motility” value turned out to be 0%. For the same compound, the Female worm motility result in series [5] (by day 90, all nodules) was “reduced to zero”. The “Fraction of normal adult female worm motility” value in series [5] (day 90, n = 7) stood at 0%; in series [5] (day 185, n = 7), 0%; in series [5] (day 275, n = 7), 0%; in series [5] (day 360, n = 2), 0%; in series [5] (day 550, n = 2), 0%.
